biological target: T1, Leukotriene A-4 hydrolase (Homo sapiens, UniProt P09960); test: Homogenous Time Resolved Fluorescence Assay
T1 sequence (P09960 whole entry): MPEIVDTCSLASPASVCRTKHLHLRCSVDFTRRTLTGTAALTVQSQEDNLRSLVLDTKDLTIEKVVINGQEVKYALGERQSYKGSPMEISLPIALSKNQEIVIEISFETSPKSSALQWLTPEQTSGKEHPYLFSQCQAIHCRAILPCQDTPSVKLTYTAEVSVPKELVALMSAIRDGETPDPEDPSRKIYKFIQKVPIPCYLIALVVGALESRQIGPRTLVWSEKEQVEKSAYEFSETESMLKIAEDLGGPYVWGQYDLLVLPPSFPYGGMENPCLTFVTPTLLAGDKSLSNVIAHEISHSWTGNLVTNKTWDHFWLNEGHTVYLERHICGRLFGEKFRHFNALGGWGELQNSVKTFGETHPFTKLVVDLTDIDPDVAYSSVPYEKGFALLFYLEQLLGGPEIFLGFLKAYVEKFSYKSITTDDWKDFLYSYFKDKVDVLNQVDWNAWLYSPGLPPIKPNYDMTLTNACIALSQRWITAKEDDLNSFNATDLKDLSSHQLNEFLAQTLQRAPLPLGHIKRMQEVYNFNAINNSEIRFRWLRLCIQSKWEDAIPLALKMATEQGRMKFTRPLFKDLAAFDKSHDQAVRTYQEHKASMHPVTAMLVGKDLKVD
Source text: The hydrolase-homogeneous time resolved fluorescence assay is a two-step assay that measures the hydrolysis of LTA4 to LTB4 by analyzing the amount of LTB4 produced. The first step involves the enzymatic conversion of LTA4 to LTB4 and the second step involves the quantification of the LTB4 formed with a homogeneous time resolved fluorescence assay.

Row | Compound | IC50
1 | COc1cc(O)cc(CCc2cccc(O)c2)c1 [Batatasin III (4)] | 1.7 µM
2 | CC(=O)Oc1ccc(/C=C/c2cc(OC(C)=O)cc(OC(C)=O)c2)cc1 [US20240398793, Compound 4] | 38.6 µM
3 | COc1cc(O)cc(/C=C/c2ccc(O)cc2)c1 [US20240398793, Compound 5] | 3.9 µM
4 | COc1cc(O)cc(CCc2ccc(O)cc2)c1 [US20240398793, Compound 6] | 6.4 µM
5 | CCOc1cc(O)cc(CCc2ccc(O)cc2)c1 [US20240398793, Compound 7] | 3.2 µM
6 | COc1cc(O)cc(CCc2ccccc2O)c1 [US20240398793, Compound 9] | 0.5 µM
7 | O=C(Cc1ccc(O)cc1)c1ccc(O)cc1O [US20240398793, Compound 10] | 34.2 µM
8 | O=c1c(-c2ccc(O)cc2)coc2cc(O)ccc12 [US20240398793, Compound 11] | 15 µM
9 | O=c1c(-c2ccccc2)coc2cc(O)ccc12 [US20240398793, Compound 13] | 48.2 µM
10 | Cc1ccc2c(=O)c(-c3ccc(O)cc3)coc2c1O [US20240398793, Compound 15] | 1.2 µM

From BindingDB's records for patent US20240398793 (Celltaxis, 2024)
